Experimental data taken from patent US8114904B2, “Luminescence quenchers and fluorogenic probes for detection of reactive species” (Versitech Limited & Morningside Ventures Limited, priority 2008, dated 2012).

How the values were obtained:
[1] = Detection of peroxynitrite: fluorescence spectra after addition of peroxynitrite
Experimental: Compound 10 obtained in Example 4 was dissolved in DMF to a concentration of 10 mM, and then the solution was diluted to 10μM by 0.1 M potassium phosphate buffer (pH 7.4). Peroxynitrite solution in 0.1 M NaOH was prepared by the method of Keith and Powell (Keith, W. G. & Powell, R. E.; Kinetics of decomposition of peroxynitrous acid; J. Chem. Soc. A, 1969, 1, 90), and its concentration in the stock solutions used was estimated by using an extinction coefficient of 1670 cm^−1 (mol/L)^−1 at 302 nm (Hughes and Nicklin; The chemistry of pernitrites. Part I. Kinetics of decomposition of pernitrious acid; J. Chem. Soc. A, 1968, 2, 450-452). Peroxynitrite stock solution was added into the solution of Compound 10 to provide various final concentrations, like 0, 2, 6, 10, 20, 30, 50 100, and 200 μM. Fluorescence spectra of the solutions were measured after 5 minutes under the same conditions as mentioned above.
Compound 12 obtained in Example 5 was dissolved in DMF to a concentration of 1 mM, and then the solution was diluted to 1 μM by 0.1 M potassium phosphate buffer (pH 7.4). Peroxynitrite solution in 0.1 M NaOH was prepared by the method of Keith and Powell (Keith, W. G. & Powell, R. E.; Kinetics of decomposition of peroxynitrous acid; J. Chem. Soc. A, 1969, 1, 90), and its concentration in the stock solutions used was estimated by using an extinction coefficient of 1670 cm^−1 (mol/L)^−1 at 302 nm (Hughes and Nicklin; The chemistry of pernitrites. Part I. Kinetics of decomposition of pernitrious acid; J. Chem. Soc. A, 1968, 2, 450-452). Peroxynitrite stock solution was added into the solution of Compound 12 to provide various final concentrations, like 0, 1, 2, 3, 4, 5, 6, and 7 μM. Fluorescence spectra of the solutions were measured after 5 minutes under the same conditions as mentioned above.
Compound 30 obtained in Example 7 was dissolved in DMF to a concentration of 10 mM, and then the solution was diluted to 10 μM by 0.1 M potassium phosphate buffer (pH 7.4). Peroxynitrite solution in 0.1 M NaOH was prepared by the method of Keith and Powell (Keith, W. G. & Powell, R. E.; Kinetics of decomposition of peroxynitrous acid; J. Chem. Soc. A, 1969, 1, 90), and its concentration in the stock solutions used was estimated by using an extinction coefficient of 1670 cm^−1 (mol/L)^−1 at 302 nm (Hughes and Nicklin; The chemistry of pernitrites. Part I. Kinetics of decomposition of pernitrious acid; J. Chem. Soc. A, 1968, 2, 450-452). Peroxynitrite stock solution was added into the solution of Compound 30 to provide various final concentrations. Fluorescence spectra of the solutions were measured after 5 minutes under the same conditions as mentioned above.

[2] = UV-visible absorption spectrum; type: physicochemical; conditions: pH 7.4 0.1 M phosphate buffer, 0.1% DMF
Experimental: Compound 10 obtained in Example 4 was dissolved in pH 7.4 0.1 M phosphate buffer containing 0.1% DMF as cosolvent to form a 10 μM solution.
Compound 12 obtained in Example 5 was dissolved in pH 7.4 0.1 M phosphate buffer containing 0.1% DMF as cosolvent to form a 1 μM solution.
Compound 14 obtained in Example 6 was dissolved in pH 7.4 0.1 M phosphate buffer containing 0.1% DMF as cosolvent to form a 1 μM solution.
Compound 30 obtained in Example 7 was dissolved in pH 7.4 0.1 M phosphate buffer containing 0.1% DMF as cosolvent to form a 10 μM solution. The absorption spectrum of the 10 μM solution of Compound 30 was measured.

[3] = system: Murine J744.1 macrophages; assay: Cell assay: detection of peroxynitrite in living cells by fluorescent microscopy; type: cell-based
Experimental: (§1) Murine J744.1 macrophages (ATCC, USA) were used to investigate the potential of Compound 22 (acetate form of Compound 10) for the detection of peroxynitrite in living cells. J744.1 macrophages were cultured in Dulbecco's Modified Eagle's Medium (DMEM) (Gibco) containing 10% heat-inactivated fetal bovine serum (Gibco) supplemented with 100 U/ml of penicillin and 100 μg/ml streptomycin at 37° C., 5% CO2. They were subcultured by scraping and seeded on six-well plates according to manufacture's instruction. The growth medium was changed every two to three days. Cells were grown to confluence prior to experiment. Murine J744.1 macrophages were incubated with Compound 22 (20 μM) for 1 hr and then washed three times with PBS buffer.
as §1, with “12 and 12a” for “22 (acetate form of Compound 10)”, “12 or 12a” for “22”, “buffer. […] The fluorescence was induced after treatment with LPS (lipopolysaccharide, 1 μg/ml) for 4 hrs (FIG. 9D and FIG. 10B).” for “buffer.”

CN(c1ccc(O)cc1)c1ccc2c(c1)Oc1cc(O)ccc1C21OC(=O)c2ccccc21 (stereo not shown) [Compound 12]
fluorescence intensity at 535 nm with increasing concentration of peroxynitrite ([1]; 1 μM probe, 0.1 M potassium phosphate buffer pH 7.4, data not shown): increases linearly | fluorescence intensity after the addition of peroxynitrite ([1]; 1 μM probe, peroxynitrite 0-7 μM, 0.1 M potassium phosphate buffer pH 7.4, after 5 minutes, excitation 515 nm): increase significantly | absorption maximum ([2]; 1 μM solution): about 515 nm | fluorescence after treatment with LPS ([3]; 20 μM probe 1 hr, LPS 1 μg/ml for 4 hrs): induced | subcellular localization ([3]; J744.1 macrophages): may selectively localize in mitochondrials | fluorescence observed in the absence of stimulants ([3]; J744.1 macrophages incubated with 20 μM probe for 1 hr): very weak fluorescence | colocalization with mitochondrial dye MitoTracker Red CMXRos ([3]; LPS-stimulated J744.1 macrophages, 20 μM): colocalized

CN(c1ccc(CCC(=O)C(F)(F)F)cc1)c1cc2c(cc1Cl)C1(OC(=O)c3ccccc31)c1cc(Cl)c(O)cc1O2 (stereo not shown) [Compound 10]
fluorescence intensity at 541 nm with increasing concentration of peroxynitrite ([1]; 10 μM probe, 0.1 M potassium phosphate buffer pH 7.4): increases linearly | fluorescence intensity after the addition of peroxynitrite ([1]; 10 μM probe, 0.1 M potassium phosphate buffer pH 7.4, measured after 5 minutes, excitation 520 nm): increase significantly | absorption maximum ([2]; 10 μM solution): about 520 nm
